From ChEMBL document CHEMBL1201862, “PubChem BioAssay data set” (2004)
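How tested: cells in 96-well plates exposed to compound for 48 hours at five concentrations. Here, GI50 denotes the concentration required for 50% inhibition of growth.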 Activity calls are given as the source filed them. No stated cut-off is given here; in the data, active = GI50 up to about 1.1 µM and inactive = higher.

Key:
Experiment in all cases: growth of human tumour cells (NCI), 48 h
[1] = test system: COLO 205
[2] = test system: 786-0
[3] = test system: M14
[4] = test system: ACHN
[5] = test system: UACC-62
[6] = test system: SF-539
[7] = test system: Malme-3M
[8] = test system: SW-620
[9] = test system: SNB-78
[10] = test system: HCT-116
[11] = test system: SN12C
[12] = test system: CCRF-CEM
[13] = test system: NCI-H23
[14] = test system: UACC-257
[15] = test system: OVCAR-3
[16] = test system: IGROV-1
[17] = test system: CAKI-1
[18] = test system: NCI-H522
[19] = test system: RXF 393
[20] = test system: U-251
[21] = test system: DMS-114
[22] = test system: A549
[23] = test system: HCT-15
[24] = test system: UO-31
[25] = test system: OVCAR-5
[26] = test system: SNB-19
[27] = test system: DLD-1
[28] = test system: SK-MEL-5
[29] = test system: HOP-92
[30] = test system: XF498
[31] = test system: RPMI-8226
[32] = test system: SR
[33] = test system: LXFL 529
[34] = test system: SK-MEL-28
[35] = test system: OVCAR-4
[36] = test system: SF-268
[37] = test system: HOP-18
[38] = test system: HT-29
[39] = test system: K562
[40] = test system: KM12
[41] = test system: OVCAR-8
[42] = test system: SK-MEL-2
[43] = test system: MOLT-4
[44] = test system: DMS-273
[45] = test system: LOX IMVI
[46] = test system: HL-60
[47] = test system: KM-20L2
[48] = test system: SK-OV-3
[49] = test system: HOP-62
[50] = test system: NCI-H226
[51] = test system: SF-295
[52] = test system: SNB-75
[53] = test system: NCI-H460
[54] = test system: M19-MEL
[55] = test system: TK-10
[56] = test system: EKVX
[57] = test system: A498
[58] = test system: HCC 2998

`O=C(c1ccc(Cl)cc1)N(C(=S)N1CCN(c2ccccn2)CC1)C1CCCCC1` was tested, and the GI50 [1] was 44.4 µM (inactive), the GI50 [2] was 36.4 µM (inactive) and the GI50 [3] was > 100 µM (inactive). For the same compound, the GI50 [4] was 43.6 µM (inactive), the GI50 [5] was > 100 µM (inactive) and the GI50 [6] was 61.7 µM (inactive). For the same compound, the GI50 [7] was > 100 µM (inactive), the GI50 [8] was 83.6 µM (inactive) and the GI50 [9] was > 100 µM (inactive). For the same compound, the GI50 [10] was 36.6 µM (inactive), the GI50 [11] was > 100 µM (inactive) and the GI50 [12] was 48.5 µM (inactive). For the same compound, the GI50 [13] was 96.8 µM (inactive), the GI50 [14] was 30.8 µM (inactive) and the GI50 [15] was 45.9 µM (inactive). For the same compound, the GI50 [16] was > 100 µM (inactive), the GI50 [17] was > 100 µM (inactive) and the GI50 [18] was 38.6 µM (inactive). For the same compound, the GI50 [19] was 35.6 µM (inactive), the GI50 [20] was 37.2 µM (inactive) and the GI50 [21] was 34.9 µM (inactive). The GI50 [22] was 45.1 µM (inactive), the GI50 [23] was 43.8 µM and the GI50 [24] was 48.3 µM (inactive). The GI50 [25] was > 100 µM (inactive), the GI50 [26] was 96.4 µM (inactive) and the GI50 [27] was 81.7 µM (inactive). For the same compound, the GI50 [28] was 38.7 µM (inactive), the GI50 [29] was > 100 µM (inactive) and the GI50 [30] was 8.26 µM (inactive). For the same compound, the GI50 [31] was 25.5 µM (inactive), the GI50 [32] was 41.1 µM (inactive) and the GI50 [33] was 75.7 µM (inactive). The GI50 [34] was > 100 µM (inactive), the GI50 [35] was > 100 µM (inactive) and the GI50 [36] was 27.3 µM (inactive). The GI50 [37] was > 100 µM (inactive), the GI50 [38] was 55.3 µM (inactive) and the GI50 [39] was 37.6 µM (inactive). For the same compound, the GI50 [40] was 68.1 µM (inactive), the GI50 [41] was > 100 µM (inactive) and the GI50 [42] was > 100 µM (inactive). The GI50 [43] was 24.3 µM (inactive), the GI50 [44] was 34.3 µM (inactive) and the GI50 [45] was 56.1 µM (inactive). For the same compound, the GI50 [46] was 17.3 µM (inactive), the GI50 [47] was 74.1 µM (inactive) and the GI50 [48] was > 100 µM (inactive). The GI50 [49] was 71.8 µM (inactive), the GI50 [50] was 18.2 µM (inactive) and the GI50 [51] was 74.1 µM (inactive). For the same compound, the GI50 [52] was > 100 µM (inactive), the GI50 [53] was 30 µM (inactive) and the GI50 [54] was > 100 µM (inactive). The GI50 [55] was > 100 µM (inactive).

In the case of `CCOc1ccc2c(c1)[n+]([O-])c(-c1nc3ccccc3s1)c(N)[n+]2[O-]`, the GI50 [1] is reported as > 100 µM (inactive), the GI50 [2] is reported as 48.4 µM (inactive) and the GI50 [3] is reported as 60.7 µM (inactive). The GI50 [4] was 55.1 µM (inactive), the GI50 [5] was 64.7 µM (inactive) and the GI50 [6] was 43.1 µM (inactive). For the same compound, the GI50 [7] was > 100 µM (inactive), the GI50 [8] was 86.7 µM (inactive) and the GI50 [9] was > 100 µM (inactive). For the same compound, the GI50 [56] was 53.1 µM (inactive), the GI50 [11] was 82.6 µM (inactive) and the GI50 [57] was 61.8 µM (inactive). The GI50 [12] was 48 µM (inactive), the GI50 [13] was 25.6 µM (inactive) and the GI50 [14] was 42.1 µM (inactive). For the same compound, the GI50 [15] was 38.4 µM (inactive), the GI50 [16] was 75.9 µM (inactive) and the GI50 [17] was 83.4 µM (inactive). The GI50 [18] was 21.6 µM (inactive), the GI50 [20] was 46.7 µM (inactive) and the GI50 [21] was 44.1 µM (inactive). For the same compound, the GI50 [22] was 61.8 µM (inactive), the GI50 [23] was 49.5 µM and the GI50 [24] was 31.3 µM (inactive). The GI50 [25] was > 100 µM (inactive), the GI50 [26] was 48.1 µM (inactive) and the GI50 [27] was 76.4 µM (inactive). For the same compound, the GI50 [28] was 30.3 µM (inactive), the GI50 [29] was 26.2 µM (inactive) and the GI50 [30] was 25.8 µM (inactive). For the same compound, the GI50 [31] was 44.3 µM (inactive), the GI50 [33] was 37.4 µM (inactive) and the GI50 [34] was 38.7 µM (inactive). For the same compound, the GI50 [35] was 65.5 µM (inactive), the GI50 [36] was 32.1 µM (inactive) and the GI50 [37] was 15.4 µM (inactive). For the same compound, the GI50 [38] was 58.7 µM (inactive), the GI50 [39] was 61.9 µM (inactive) and the GI50 [40] was 60.7 µM (inactive). The GI50 [41] was 75.2 µM (inactive), the GI50 [42] was 52.8 µM (inactive) and the GI50 [43] was 36.7 µM (inactive). For the same compound, the GI50 [44] was 52.6 µM (inactive), the GI50 [45] was 64 µM (inactive) and the GI50 [46] was 31.2 µM (inactive). For the same compound, the GI50 [58] was 96.6 µM (inactive), the GI50 [47] was > 100 µM (inactive) and the GI50 [48] was > 100 µM (inactive). The GI50 [49] was 88.7 µM (inactive), the GI50 [50] was 45.4 µM (inactive) and the GI50 [51] was 50 µM (inactive). For the same compound, the GI50 [52] was 57.4 µM (inactive), the GI50 [53] was 58.7 µM (inactive) and the GI50 [54] was > 100 µM (inactive). For the same compound, the GI50 [55] was > 100 µM (inactive).

In the case of `Nc1cc(O)nc(SC2=NC(N)CC(O)C2)n1` (configuration not stated), the GI50 [1] is reported as > 100 µM (inactive), the GI50 [2] is reported as > 100 µM (inactive) and the GI50 [3] is reported as > 100 µM (inactive). The GI50 [4] was > 100 µM (inactive), the GI50 [5] was > 100 µM (inactive) and the GI50 [6] was > 100 µM (inactive). For the same compound, the GI50 [7] was > 100 µM (inactive), the GI50 [8] was 42.5 µM (inactive) and the GI50 [9] was > 100 µM (inactive). For the same compound, the GI50 [56] was > 100 µM (inactive), the GI50 [11] was > 100 µM (inactive) and the GI50 [12] was > 100 µM (inactive). For the same compound, the GI50 [13] was > 100 µM (inactive), the GI50 [14] was > 100 µM (inactive) and the GI50 [15] was > 100 µM (inactive). For the same compound, the GI50 [16] was > 100 µM (inactive), the GI50 [17] was > 100 µM (inactive) and the GI50 [18] was > 100 µM (inactive). For the same compound, the GI50 [20] was > 100 µM (inactive), the GI50 [21] was > 100 µM (inactive) and the GI50 [23] was > 100 µM. For the same compound, the GI50 [24] was > 100 µM (inactive), the GI50 [25] was > 100 µM (inactive) and the GI50 [26] was > 100 µM (inactive). For the same compound, the GI50 [27] was > 100 µM (inactive), the GI50 [28] was > 100 µM (inactive) and the GI50 [29] was > 100 µM (inactive). For the same compound, the GI50 [30] was > 100 µM (inactive), the GI50 [31] was > 100 µM (inactive) and the GI50 [32] was > 100 µM (inactive). For the same compound, the GI50 [33] was > 100 µM (inactive), the GI50 [34] was > 100 µM (inactive) and the GI50 [35] was > 100 µM (inactive). For the same compound, the GI50 [37] was > 100 µM (inactive), the GI50 [38] was > 100 µM (inactive) and the GI50 [39] was > 100 µM (inactive). For the same compound, the GI50 [40] was > 100 µM (inactive), the GI50 [41] was > 100 µM (inactive) and the GI50 [42] was > 100 µM (inactive). For the same compound, the GI50 [43] was > 100 µM (inactive), the GI50 [44] was > 100 µM (inactive) and the GI50 [45] was > 100 µM (inactive). For the same compound, the GI50 [58] was > 100 µM (inactive), the GI50 [47] was > 100 µM (inactive) and the GI50 [48] was > 100 µM (inactive). For the same compound, the GI50 [49] was > 100 µM (inactive), the GI50 [50] was > 100 µM (inactive) and the GI50 [51] was > 100 µM (inactive). For the same compound, the GI50 [52] was > 100 µM (inactive), the GI50 [53] was > 100 µM (inactive) and the GI50 [54] was > 100 µM (inactive). The GI50 [55] was > 100 µM (inactive).
